pIC50: −log10 of the molar value.

Usually pIC50 stands for the negative decadic logarithm of the IC50, by convention in mol/L. High values mean a small IC50, low ones a large IC50. A word on the IC50: it is the midpoint of a concentration-inhibition curve. A high value points to lower potency.

Assay [1] has as its system colorectal cancer cell line HT29. The experiment in a line: Cell growth inhibitory activity, HT29. In kind it is cell-based. The conditions noted are these: Table 4; 72 hours.
In assay [2] the test system is pancreatic cancer cell line ASPC-1. In words: Cell growth inhibitory activity, ASPC-1. In kind it is cell-based. The conditions noted are these: Table 7. The procedure:
[The source words this procedure for another cell line and reports this cell line under the same test.] (§1) The cell growth inhibitory activity against a colorectal cancer cell line HCT116 was measured. As an index of cell growth inhibitory activity, a concentration at which cell growth was inhibited by 50% as compared with a control (IC50) was used. The method is as follows. HCT116 was added to a 6-well plate by 5×10^4, compounds having various concentrations were added after 24 hours, and the number of cells was counted after 72 hours of culture. As the control, DMSO was used in an amount equal to the amount added in accordance with the addition concentration of the highest-concentration compound. The number of cells at each concentration relative to the control was expressed as a percentage.
(§2) The method is as described above.

In assay [3] the test system is pancreatic cancer cell line Panc-1. In words: Cell growth inhibitory activity, Panc-1. It is filed as cell-based. Conditions: Table 7. The procedure:
[The source words this procedure for another cell line and reports this cell line under the same test.] as §1, §2

Assay [4] deals with malignant pleural mesothelioma cell line MSTO211H. The experiment in a line: Cell growth inhibitory activity, MSTO211H. Conditions: Table 8. In kind it is cell-based. How it is done: as §1, with “percentage. In Table 3, the turbidities of the compounds are also indicated.” for “percentage.”
GO-Y198, GO-Y199, and GO-Y200 against malignant pleural mesothelioma cell lines NCI-H226 and MSTO211H was measured. The method is as described above. For comparison, the IC50 of cisplatin (CDDP), a cytocidal anticancer agent, is also indicated.

Assay [5] concerns malignant melanoma cell line G361. In words: Cell growth inhibitory activity, G361. In kind it is cell-based. The conditions noted are these: Table 9. How it is done:
[The source words this procedure for another cell line and reports this cell line under the same test.] as §1, §2

Assay [6] relates to cutaneous T-cell lymphoma cell line HH. The experiment in a line: Cell growth inhibitory activity, HH. In kind it is cell-based. Conditions: Table 10. How it is done:
[The source words this procedure for another cell line and reports this cell line under the same test.] as §1, §2

The test system of assay [7] is vascular endothelial cells HUVEC-R resistant to Ki8751. The experiment in a line: Angiogenesis inhibitory activity, HUVEC-R. In kind it is cell-based. The conditions noted are these: Table 11; number of cells after 72 hours. The procedure:
HUVEC-R was cultured in the presence of each compound using an EGMTM-2 Bullet Kit (Takara Bio Inc., Otsu, Japan), and the number of cells was measured after 72 hours. In addition, IC50 was determined from the results.

The subject of another assay is HCT116. The experiment in a line: Cytocidal effect, HCT116. In kind it is cell-based. The conditions noted are these: 2 μM and 5 μM, cells counted after 48 and 72 hours. How it is done: (§3) The method is as follows. Each cell line was added to 6-well plate by 5×10^4, 2 μM and 5 μM of GO-Y199 were added after 24 hours, and the number of cells was counted after 48 hours and 72 hours.

Another assay concerns Kato III. In words: Cytocidal effect, Kato III. The conditions noted are these: 2 μM and 5 μM, cells counted after 48 and 72 hours. It is filed as cell-based. The procedure: as §3
A further assay concerns NF-kB (p65). The experiment in a line: Influence on NF-kB, immunohistochemistry in HCT116. It is filed as cell-based. The conditions noted are these: 2 μM, 24 hours, control 96.8±1.1%. The procedure: (§4) The influence of GO-Y199 on NF-kB (p65) was investigated. The method is as follows. 3×10^6 cells of the HCT116 cell line were added to a 10-cm plate, 2 μM of GO-Y199 was added after 24 hours, the cells were collected after 24 hours, embedded in iPGell (GenOStaff), and fixed in formalin, paraffin blocks were then prepared, and immuno-histochemistry was performed with an anti-NF-kB (p65) antibody. In addition, 2 μM and 5 μM of GO-Y199 were added, lysates were collected after 24 hours, and an expression level of NF-kB (p65) was analyzed using an ELISA-plate (NF-kBp65 (pS536) SimpleStep-ELISA-kit, Abcam). An amount of protein was corrected by the absorbance of A 280 nm. The upper part of FIG. 14 indicates photographs of the control group and the GO-Y199 (2 μM)-added group after 24 hours. The lower part of FIG. 14 indicates results of the t-test of these groups after 24 hours. FIG. 15 indicates the comparison results of the NF-kB inhibitory effect of GO-Y199 (2 μM, 5 μM)-added groups with respect to the control group.

The subject of the next assay is pSTAT3. The experiment in a line: Influence on pSTAT3, immunohistochemistry. It is filed as cell-based. Conditions: 2 μM; 24 hours; control 10.2±1.6%. How it is done:
as §4
The influence of GO-Y199 on pSTAT3 was investigated. The method is as described above. Immunohistochemistry was performed with an anti-pSTAT3 antibody. The upper part of FIG. 16 indicates photographs of the control group and the GO-Y199 (2 μM)-added group after 24 hours. The lower part of FIG. 16 indicates results of the t-test of these groups after 24 hours.

The subject of a further assay is Caspase 3. The experiment in a line: Influence on Caspase 3, immunohistochemistry. It is filed as cell-based. Conditions: 2 μM; 24 hours; control 1.0±0.1%. The procedure: as §4
The influence of GO-Y199 on Caspase 3 was investigated. The method is as described above. Immunohistochemistry was performed with an anti-Caspase 3 antibody. Quantification of apoptosis-related protein was performed using M30 Apotosense ELISA (PEVIVA). The upper part of FIG. 20 indicates photographs of the control group and the GO-Y199 (2 μM)-added group after 24 hours. […]

In assay [8] the test system is FOXP3-positive regulatory T cells. The experiment in a line: Regulatory T cell inhibitory activity. In kind it is cell-based, mouse. The conditions noted are these: 0.3 μM; control 12.8%. The procedure: Naive CD4^+ T cells were collected from the spleen of a mouse using a CD4^+CD62L^hi T Cell Isolation Kit (Miltenyi Biotec). 0.5×10^6 cells/mL of the collected T cells were added to a RPMI 1640 medium to which penicillin/streptomycin (5,000 units/mL), 10% fetal bovine serum, and 50 μM of 2-mercaptoethanol were added. Subsequently, 1 μg/mL of anti-CD3 antibody (eBioscience) was added to the medium, and 1 μg/ml of anti-CD28 antibody (eBioscience) was further added thereto. The medium was then cultured at 37° C. for 3 days. Then, TGF-β1 (2 ng/mL) was added to the medium and cultured for 24 hours. After that, a FOXP3 Staining Buffer Kit (eBioscience) was used to fix the cells and treat cell membranes, and FOXP3 in the nuclei was stained. The stained cells were measured using a BD LSRFortessa™ (BD Bioscience) flow cytometer, and the obtained data was analyzed with FlowJo (Tree-Star version).

On to `COCOc1cc(/C=C/C(=O)CC(SCCOCCOCCOCCOCc2cn([C@@H]3O[C@H](CO)[C@@H](O[C@@H]4O[C@H](CO)[C@H](O)[C@H](O)[C@H]4O)[C@H](O)[C@H]3O)nn2)c2cc(OCOC)cc(OCOC)c2)cc(OCOC)c1` (stereo partly shown) [GO-Y199], for which, in [1], the negative-log IC50 (pIC50) was 6.12. The half-maximal inhibitory concentration (IC50) in [2] was found to be 1.03 µM; in [3] it was 0.95 µM; in assay [4], 2.4 µM; in assay [5], 1.4 µM; in [6] it was 1.11 µM; in [7], 0.96 µM. Also, the cytocidal effect entry in the assay with HCT116 and with Kato III was “cytocidal effect” each time. Also, the “proportion of cells expressing NF-kB (p65)” value in the assay with NF-kB (p65) came out at 69.4±12.4%. In addition, in the assay on pSTAT3, the “relative expression level of pSTAT3” value came out at 0.3±0.5%. The “proportion of Caspase 3-expressing cells” value in the assay on Caspase 3 is recorded as 57.4±2.6%. Besides, the “induction ratio of FOXP3-positive regulatory T cells” value in [8] is listed as 2.22%.

Source of the values: patent publication US20240158430A1, “NOVEL COMPOUND OR SALT THEREOF, AND ANTITUMOR ACTIVATOR CONTAINING SAME AS ACTIVE INGREDIENT” (AKITA UNIVERSITY, priority 2021, published 2024).
